Where “and” joins values, the source holds several entries; their conditions need not be identical. Equal values may be shown once. Calls of active or inactive are those of the source.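 Rule for the calls: active = compounds with IC50 below 20 µM; inactive = the rest.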
The molecules below were run against Type-1 angiotensin II receptor (Homo sapiens) (UniProt P30556) (assay: AGTR1 antagonism selectivity check – cell-based, CHO-K1 PathHunter, luminescence, selectivity assay for APJ antagonist project, SAR follow-up (AID 488810;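 note: agonist challenge with angiotensin II at 50 nM final near its EC80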)). Conditions: CHO-K1 AGTR1 PathHunter beta-arrestin, antagonist mode.
Chain of Type-1 angiotensin II receptor (Homo sapiens) (P30556 whole entry, looked up): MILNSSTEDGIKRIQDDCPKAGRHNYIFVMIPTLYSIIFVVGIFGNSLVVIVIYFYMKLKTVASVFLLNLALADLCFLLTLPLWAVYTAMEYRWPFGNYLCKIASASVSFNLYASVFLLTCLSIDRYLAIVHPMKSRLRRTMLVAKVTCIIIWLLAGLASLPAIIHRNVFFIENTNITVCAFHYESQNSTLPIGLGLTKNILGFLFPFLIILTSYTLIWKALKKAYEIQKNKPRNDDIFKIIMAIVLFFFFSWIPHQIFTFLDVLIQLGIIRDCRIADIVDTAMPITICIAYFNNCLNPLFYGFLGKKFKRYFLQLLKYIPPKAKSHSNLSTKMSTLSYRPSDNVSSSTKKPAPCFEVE

IC50 | SMILES
inactive | CC1(C)CC2(CC(c3ccccc3Cl)c3ccc(O)cc3O2)NC(=S)N1 (stereo not given)
> 79 µM (inactive) | CC(C)(C)c1ccc(C(=O)Oc2coc(CSc3ncccn3)cc2=O)cc1
inactive | O=C(Oc1coc(CSc2ncccn2)cc1=O)c1cc([N+](=O)[O-])ccc1Cl
> 79 µM (inactive) | Cc1ccccc1C1CC2(CC(C)(C)NC(=S)N2)Oc2cc(O)c(Cl)cc21 (stereo not given)
> 79 µM (inactive) | Cc1ccc(C)c(NCC(O)c2ccc(Cl)cc2)c1 (stereo not given)
> 79 µM (inactive) | Cc1ccnc(SCc2cc(=O)c(OC(=O)c3ccccc3Cl)co2)n1
inactive | Cc1cc(C)nc(SCc2cc(=O)c(OC(=O)c3cc([N+](=O)[O-])ccc3Cl)co2)n1
> 79 µM (inactive) | Cc1ccnc(SCc2cccc(O)c2)n1
> 79 µM (inactive) | Cc1ccnc(SCc2cc(=O)c(OC(=O)c3cccs3)co2)n1
19.8 µM | O=C(COC(=O)c1ccncc1)c1ccc(Cl)c(Cl)c1
inactive | Cc1cc(C)nc(SCc2cc(=O)c(OC(=O)c3cc(Cl)ccc3[N+](=O)[O-])co2)n1
5.01 µM | Cc1cc(C)nc(NNS(=O)(=O)c2c(F)cc(F)cc2Br)n1
> 79 µM (inactive) | CC(C)Oc1ccc(C(=O)Oc2coc(CSc3ncccn3)cc2=O)cc1
> 79 µM (inactive) | O=C(COC(=O)c1cccnc1)c1ccc(Cl)cc1
> 79 µM (inactive) | C=CCOc1cccc(CSc2ncccn2)c1
> 79 µM (inactive) | CN(C)S(=O)(=O)c1ccc(C(=O)Oc2coc(CSc3ncccn3)cc2=O)cc1
1.93 µM and 2.19 µM | COc1ccccc1NCC(=O)c1ccc(Cl)cc1
9.98 µM | CNC(=O)c1nnsc1S(=O)(=O)c1ccc(Cl)cc1
inactive | CC(C)N1CCc2c(sc(NC(=O)c3cc(-c4cccs4)nc4ccccc34)c2C(N)=O)C1
> 79 µM (inactive) | Cc1ccnc(SCc2cc(=O)c(OC(=O)c3ccc([N+](=O)[O-])cc3)co2)n1
17.9 µM | FC(F)(F)c1cccc(Sc2nc(-c3ccccc3)nnc2C(F)(F)F)c1
> 79 µM (inactive) | Cc1ccccc1NCC(O)c1ccc(Cl)cc1 (stereo not given)

IC50 | SMILES
> 79 µM (inactive) | C=CCOc1cccc(CSc2nc(C)cc(C)n2)c1
> 79 µM (inactive) | Cc1ccnc(SCc2cc(=O)c(OC(=O)c3ccc(F)cc3)co2)n1
3.37 µM | Cc1ccc(C(=O)CNc2ccccc2)cc1
inactive | CC(C(=O)OCC(=O)c1cccc([N+](=O)[O-])c1)N1C(=O)C2C3C=CC(C3)C2C1=O (stereo not given)
> 79 µM (inactive) | O=C(Oc1coc(CSc2ncccn2)cc1=O)c1ccc([N+](=O)[O-])cc1
4.52 µM | O=C(Nc1nc2c(F)cc(F)cc2s1)c1ccccn1
> 79 µM (inactive) | COc1cc(C(=O)Oc2coc(CSc3ncccn3)cc2=O)c([N+](=O)[O-])cc1OC
> 79 µM (inactive) | Cc1ccnc(SCc2cc(=O)c(OC(=O)c3ccco3)co2)n1
inactive | CCOC(=O)C1=NNC(C(=O)c2ccc(Cl)cc2)C1c1ccccc1 (stereo not given)
4.78 µM | O=C(CNC(=O)c1ccco1)NCC(=O)OCC(=O)c1ccc(Cl)c([N+](=O)[O-])c1
> 79 µM (inactive) | CC1(C)CC2(CC(c3ccc(F)cc3)c3ccc(O)cc3O2)NC(=S)N1 (stereo not given)
9.04 µM | O=c1cc(CSc2ccc(Cl)cc2)nc(-c2ccccn2)[nH]1
> 79 µM (inactive) | O=C(Oc1coc(CSc2ncccn2)cc1=O)c1ccc(Cl)c([N+](=O)[O-])c1
> 79 µM (inactive) | C=CCOc1ccc(CSc2nc(C)cc(C)n2)cc1Cl
inactive | Cc1cccc(C2CC3(CC(C)(C)NC(=S)N3)Oc3cc(O)cc(C)c32)c1 (stereo not given)
> 79 µM (inactive) | O=C(Oc1coc(CSc2ncccn2)cc1=O)c1ccc(F)cc1
> 79 µM (inactive) | CC1(C)CC2(CC(c3ccccc3F)c3cc(Cl)c(O)cc3O2)NC(=S)N1 (stereo not given)
7.74 µM | Cc1ccc2nc(C)cc(C(=O)OCC(=O)c3ccc(Cl)c([N+](=O)[O-])c3)c2c1
14.3 µM | Cc1cccc2c1NC(=O)C2=Nc1ccc(Cl)cc1
> 79 µM (inactive) | Cc1ccnc(S(=O)(=O)Cc2cc(=O)c(OC(=O)c3ccc(Cl)c([N+](=O)[O-])c3)co2)n1
3.92 µM | Cc1ccc(N=C2C(=O)Nc3ccc(Br)cc32)cc1
> 79 µM (inactive) | O=C(Oc1coc(CSc2ncccn2)cc1=O)c1ccc(S(=O)(=O)N2CCCCC2)cc1

SMILES | IC50
O=c1cc(CCl)occ1O | > 79 µM (inactive)

From PubChem BioAssay AID488810 (Sanford-Burnham Center for Chemical Genomics, 2010)
